Data from PMC7934871 (JCI Insight, 2021).

Tested on: HCT116 xenograft tumors
Test: HCT116 xenograft in NSG mice, systemic (i.v.) treatment
Format: in vivo, mouse
Experimental: (A) Growth kinetics of HCT116 tumors in NSG mice systemically treated with acet.-STAT3 peptides (1 mg/kg), with or without PS oligonucleotide conjugation, every other day (n = 5). SD is shown. Two-way ANOVA (Tukey’s multiple comparisons test) was used for analyzing the kinetics of tumor growth over the treatment period; ****P < 0.001. […] Lower 2 panels show input total STAT3 protein. […] Penetration of FAM-labeled PS-acet.-STAT3 peptide into tumors was also assessed by immunostaining followed by confocal imaging (second panel from top). The images are representative of 5 tumors per experimental group in A. Scale bars: 50 μm. Insets: original magnification, ×20. The graphs show the quantification for FAM and Ki-67 expression levels and of the mean vessel diameter (data include 5 fields of view per group). SD is shown. One-way ANOVA; ****P < 0.001; ***P < 0.005.
Mouse care and experimental procedures were performed under pathogen-free conditions in accordance with established institutional guidance and approved IACUC protocols from Research Animal Care Committee of the City of Hope. For s.c. tumor challenge, 5 × 10^6 HCT116 cells were injected into NSG mice from The Jackson Laboratory or animal resource core facility at the City of Hope. After tumors reached an average size of 80~100 mm^3, mice were locally or intravenously treated with 1 mg/kg of PO- or PS-peptides (Anaspec) every day or every other day. Control animals were treated with the equal volume of HBSS (Invitrogen, Thermo Fisher Scientific). Tumor growth was measured by a digital caliper every other day. To study the effects of the modified peptides at protein and gene levels, mice were euthanized 4–6 weeks after tumor injection. B16 melanoma lung metastasis was performed by injecting 0.5 × 10^6 B16 cells into bloodstream of C57BL/6 mice (The Jackson Laboratory). One day after tumor challenge, mice were treated intravenously (retro-orbitally) with 1 mg/kg of PO- or PS-acet.-STAT3, PS-unacet.-STAT3, or PS-STAT3-K685R peptides every other day until the endpoint as indicated. Control mice were treated with HBSS. Lungs were excised from the mice, and B16 nodules were visualized by gp100 staining. Lungs were then analyzed for immune responses by immunostaining followed by confocal imaging. For mouse PDAC model, 5 × 10^6 KPC mouse cells were mixed with Matrigel and subcutaneously injected into C57BL/6 mice (The Jackson Laboratory). […] Control animals were treated with the equal volume of HBSS (Invitrogen, Thermo Fisher Scientific). Tumor growth was measured by a digital caliper every other day. To study the effects of the modified peptides at protein and gene levels, mice were euthanized at the endpoint as indicated.

Substance: PDIPKEEAFGK685(Ac)YCRPESQEHPC-linker-T*C*C*A*T*G*A*G*C*T*T*C*C*T*G*A*T*G*C*T [PS-acet.-STAT3 peptide]
- tumor growth (HCT116 s.c. in NSG mice, 1 mg/kg i.v. every other day, n = 5): significantly reduced
- STAT3 activation in tumor xenografts (HCT116 tumor tissues, immunoprecipitation and Western blotting): downregulated
- cell death in tumor sections (H&E staining) (HCT116 xenograft): massive cell death
- cell proliferation marker Ki-67 and tumor angiogenesis marker CD31 in tumor tissues (HCT116 xenograft, IF and confocal): significant reduction
- proapoptotic genes (TP53, CASP9) in tumor tissues (HCT116 xenograft, qRT-PCR): significantly upregulated
- expression of STAT3 target genes MMP-9 (MMP9) and BCL-XL (BCL2L1) in tumors (HCT116 xenograft, qRT-PCR and Western blotting): significantly reduced
